{"source": "patent US20240207212A1", "about": "“METHODS AND COMPOSITIONS FOR TREATING INFLAMMATION” (priority 2017, published 2024)", "key": {"P-gp": {"biological_target": "P-gp (Homo sapiens, UniProt P08183)", "sequence (P08183 whole entry)": "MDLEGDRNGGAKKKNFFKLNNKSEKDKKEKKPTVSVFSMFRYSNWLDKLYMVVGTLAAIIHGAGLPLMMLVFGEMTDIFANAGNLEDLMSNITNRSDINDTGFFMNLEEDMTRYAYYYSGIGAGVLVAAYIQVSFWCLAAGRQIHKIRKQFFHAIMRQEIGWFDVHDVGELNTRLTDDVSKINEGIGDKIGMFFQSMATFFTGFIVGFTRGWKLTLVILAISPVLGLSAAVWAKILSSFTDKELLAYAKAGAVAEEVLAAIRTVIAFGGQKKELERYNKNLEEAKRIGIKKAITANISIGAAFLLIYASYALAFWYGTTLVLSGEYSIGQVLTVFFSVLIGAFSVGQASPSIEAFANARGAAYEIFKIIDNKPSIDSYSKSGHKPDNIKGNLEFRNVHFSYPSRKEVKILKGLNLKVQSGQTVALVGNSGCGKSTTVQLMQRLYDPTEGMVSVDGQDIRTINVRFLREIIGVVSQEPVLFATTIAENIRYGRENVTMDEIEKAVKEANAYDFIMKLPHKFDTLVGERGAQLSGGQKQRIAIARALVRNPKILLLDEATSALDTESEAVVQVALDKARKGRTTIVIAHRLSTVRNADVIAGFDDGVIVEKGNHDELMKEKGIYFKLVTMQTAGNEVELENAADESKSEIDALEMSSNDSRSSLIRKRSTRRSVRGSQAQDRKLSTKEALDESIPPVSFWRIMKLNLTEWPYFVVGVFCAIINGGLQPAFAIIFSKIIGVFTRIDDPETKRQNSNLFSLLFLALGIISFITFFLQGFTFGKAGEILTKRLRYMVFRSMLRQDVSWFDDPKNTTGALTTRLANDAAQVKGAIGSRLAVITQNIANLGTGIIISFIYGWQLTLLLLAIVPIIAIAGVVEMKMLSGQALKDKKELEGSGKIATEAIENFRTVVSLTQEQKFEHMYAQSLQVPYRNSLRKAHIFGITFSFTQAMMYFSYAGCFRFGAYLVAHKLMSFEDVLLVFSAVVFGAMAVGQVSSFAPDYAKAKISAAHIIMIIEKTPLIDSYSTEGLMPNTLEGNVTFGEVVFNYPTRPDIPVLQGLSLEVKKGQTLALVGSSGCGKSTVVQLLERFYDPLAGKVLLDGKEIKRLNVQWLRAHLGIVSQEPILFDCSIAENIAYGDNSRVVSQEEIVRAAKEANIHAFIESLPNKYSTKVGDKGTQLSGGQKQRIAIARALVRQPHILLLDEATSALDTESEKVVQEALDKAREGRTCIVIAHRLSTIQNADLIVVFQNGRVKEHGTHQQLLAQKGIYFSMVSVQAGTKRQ", "test": "Semi-quantitative MS analysis of enriched AMEND preparations from control and P-gp knockdown T84 cells", "conditions": "for Average (relative abundance, normalized to anandamide-d8 standard): anandamide-d8 standard at 1 μg/μL", "excerpt": "Generation of P-gp knockdown T84 cell lines. Purified DNA containing shRNA constructs targeting the mdr1a gene in a pLK0.1 plasmid background was obtained from the UMass RNAi core. Constructs were as follows: B4 (Clone ID: TRCN0000059683), B5 (Clone ID: TRCN0000059684), B6 (Clone ID: TRCN0000059685), B7 (Clone ID: TRCN0000059686), B8 (Clone ID: TRCN0000059687). Lentiviruses were produced by transfecting packaging cells (293T) with psPAX2, pMD.2G, and pLK0.1 plasmid constructs, using Trans-IT-LT1 lipid (Mirus Bio). After 48 hours, lentiviral supernatants were harvested, combined with 8 μg/mL polybrene (Sigma-Aldrich) and applied to T84 cells in 20% confluent monolayers. This process was repeated 24 hours later, and 48 hours following the second transfection, resistant cells were selected with 5 μg/mL puromycin.\nProduction of enriched AMEND. T84 cells were grown as confluent monolayers in 162 cm^2 flasks and equilibrated in Hanks Buffered Saline Solution with Mg^2+/Ca^2+ (HBSS+/+) at 37° C., 5% CO2. […] Cell supernatants collected over the course of five hours were pooled from 30 flasks, lyophilized, resuspended in water and ultrafiltered through Amicon 1,000-Da cutoff membrane (Millipore) with N2 positive pressure. Samples were captured on a C18 Bakerbond® SepPak column, washed with water and hexane, eluted with methanol, dried under N2 gas and stored at −80° C. Before use in migration experiments, samples were resuspended in HBSS+/+as needed. For screening in the DiscoveRx GPCR β-arrestin activity assay (Fremont, CA), samples were resuspended in PBS to provide a 1000× solution for screening.\nLC/MS analysis of AMEND. MeOH-eluted preparations as above were dried under a stream of N2 (g), re-suspended in MeOH/buffer and separated by HPLC using a Vydac (Hesperia, CA) C18 (10 um; 300 Å) semi-preparative column ([…]). Active AMEND fractions were characterized by HPLC/Mass spectrometry (Genesis C18 (4 um, 120 Å) analytical HPLC column (4.6×150 mm) equilibrated with 5 mM triethylamine acetic acid (pH 7.2) with the effluent analyzed by using a Finnigan LCQDeca electrospray mass spectrometer.\nSelected samples were analyzed for high mass accuracy determination and solubilized in 50:50 acetonitrile:H2O with 0.2% formic acid. A MAXIS-HD ultra-high resolution quadrupole time-of-flight (UHR-ESI-QTOF) mass spectrometer (Bruker Daltonik GmbH, Bremen, Germany) was used; this was coupled to a syringe driver (Hamilton, Bonaduz, Switzerland) with the sample solution being infused at a rate of 3 μL/min.\nNitrogen acted as the nebulizing gas, applied at a pressure of 2 bar. The drying gas was also nitrogen, supplied at a flow rate of 8 L/min and a temperature of 200° C. Positive ion mode was used with a corresponding capillary voltage of −4500V. Only full scan data was acquired. For each batch of samples a solution of 5 mM sodium formate clusters was also analysed. This acted as an external data file calibrant over the mass range 75-1000 m/z. The recalibrated detected mass and isotope pattern were used in the FindFormula tool to generate a list of potential theoretical formulae within 2 mDa of the detected mass. The detected isotope pattern was used to sort this list.\nData acquisition and automated processing was controlled via Compass OpenAccess 1.7 software (Bruker Daltonik GmbH, Bremen, Germany), and data processing was carried out using DataAnalysis 3.4 (Bruker Daltonik GmbH, Bremen, Germany). At each step care was taken to avoid sample degradation and oxidation by maintaining them on ice and under N2 gas as much as possible. Relative quantification by ion intensities was performed by the summation of intensities for protonated and sodiated ions to compensate for possible variation in adduct formation due to varying biological sodium levels.\nWith respect to Table 2, semi-quantitative MS analysis was performed to compare enriched AMEND preparations from control T84 cells to those with shRNA-mediated P-gp knockdown (B4-mdr1a and B5-mdr1a)."}, "[1]": {"system": "neutrophil migration across NIH-H292 cells infected with Streptococcus pneumoniae", "test": "In vitro PMN transepithelial migration across H292 monolayers infected with S. pneumoniae", "type": "cell-based, human", "conditions": "100 μM pretreatment before infection with 10 MOI Streptococcus pneumoniae, vs mock-treated (FIG. 19A, FIG. 20D)", "experimental": "S. pneumoniae can induce PMN transepithelial migration across model lung epithelia where a well-established in vitro model system is utilized. Briefly, H292 cells are seeded on permeable supports to form a barrier, thereby mimicking the in vivo architecture. Freshly isolated human neutrophils are then applied to the basolateral chamber of the transwell, allowing the neutrophils to transverse the epithelial layer in response to chemoattractants released by the epithelium.\nUsing an in vitro model of neutrophil (PMN) migration, we examined the results of MRP2 inhibition. NIH-H292 cells were incubated with 100 μM of the MRP2 inhibitor Probenecid (horizontal striped) or mock treated with PBS (black) before infection. Both control and probenecid treated cells were then washed and infected with 10 MOI Streptococcus pneumoniae. Neutrophils were placed in the basolateral chamber of the membrane construct and allowed to migrate post-infection. Neutrophils that have traveled to the apical chamber were quantified with a modified myeloperoxidase assay against a standard number of neutrophils. Shown in FIG. 20D is a representative data set that has been repeated at least 3 times. […] Uninfected cells are represented in white, labeled “Buffer”. Statics performed using unpaired T-test."}, "[2]": {"system": "C57BL/6 mice infected with Streptococcus pneumoniae", "test": "S. pneumoniae lung infection of mice with MRP2 inhibition", "type": "in vivo", "experimental": "FIGS. 19A-19E. MRP2 inhibition in vivo. Using an in vitro model of neutrophil migration, we examined the results of MRP2 inhibition. MRP2 inhibition via Probenecid treatment results in a reduction of neutrophils migrating in a basolateral-to-apical direction (FIG. 19A). Following this in vitro result, C57/B16 mice were treated with either PBS or Probenecid and subsequently infected with Streptococcus pneumoniae. Mice treated with probenecid had fewer Cd11b-positive/Ly6g-positive cells (neutrophils) in the bronchoalveolar lavage (BAL) isolated from infected lungs (FIG. 19B).\nS. pneumoniae infection under conditions where MRP2 function was impeded with probenecid was examined. C57BL/6 mice were infected with between 1×10^5 and 3×10^5 bacteria via the trachea, leading to lobar pneumonia and progressing to bacteremia and sepsis, after which the mice succumb to infection. Probenecid was delivered 3 hours prior to infection as a primer and again at 3-hours post-infection."}, "[3]": {"system": "HXA3-induced neutrophil migration", "test": "96-well neutrophil migration assay (modified Boyden chamber, cell-free)", "type": "cell-based, human", "conditions": "for AMEND inhibitory activity of purified compounds in the cell-free migration assay: FIG. 2F", "protocol": "Supernatants from T84 epithelial monolayers were enriched for lipids and tested for ability to inhibit HXA3-induced migration in a 96-well modified Boyden chamber assay (FIG. 2A). In order to compare across experiments with different donors, migration values within individual experiments were normalized to enriched HXA3 with vehicle treatment. […] FIG. 2C performed as in FIG. 2A, but prior to use in the migration assays enriched T84 supernatants were pretreated with FAAH or MAGL at 37 °C for 30 min. […] Commercially available endocannabinoids and related compounds were tested in the 96 well migration assay (FIG. 2F). Compounds were used at the highest concentration at which they were soluble in PBS. Data are mean+/−SEM of at least 3 independent experiments, *=p<0.05 and **=p<0.01 by one-way ANOVA.\n96-well neutrophil migration.\nPurified compounds used in migration assays."}, "MRP1": {"biological_target": "MRP1 (Homo sapiens, UniProt P33527)", "sequence (P33527 whole entry)": "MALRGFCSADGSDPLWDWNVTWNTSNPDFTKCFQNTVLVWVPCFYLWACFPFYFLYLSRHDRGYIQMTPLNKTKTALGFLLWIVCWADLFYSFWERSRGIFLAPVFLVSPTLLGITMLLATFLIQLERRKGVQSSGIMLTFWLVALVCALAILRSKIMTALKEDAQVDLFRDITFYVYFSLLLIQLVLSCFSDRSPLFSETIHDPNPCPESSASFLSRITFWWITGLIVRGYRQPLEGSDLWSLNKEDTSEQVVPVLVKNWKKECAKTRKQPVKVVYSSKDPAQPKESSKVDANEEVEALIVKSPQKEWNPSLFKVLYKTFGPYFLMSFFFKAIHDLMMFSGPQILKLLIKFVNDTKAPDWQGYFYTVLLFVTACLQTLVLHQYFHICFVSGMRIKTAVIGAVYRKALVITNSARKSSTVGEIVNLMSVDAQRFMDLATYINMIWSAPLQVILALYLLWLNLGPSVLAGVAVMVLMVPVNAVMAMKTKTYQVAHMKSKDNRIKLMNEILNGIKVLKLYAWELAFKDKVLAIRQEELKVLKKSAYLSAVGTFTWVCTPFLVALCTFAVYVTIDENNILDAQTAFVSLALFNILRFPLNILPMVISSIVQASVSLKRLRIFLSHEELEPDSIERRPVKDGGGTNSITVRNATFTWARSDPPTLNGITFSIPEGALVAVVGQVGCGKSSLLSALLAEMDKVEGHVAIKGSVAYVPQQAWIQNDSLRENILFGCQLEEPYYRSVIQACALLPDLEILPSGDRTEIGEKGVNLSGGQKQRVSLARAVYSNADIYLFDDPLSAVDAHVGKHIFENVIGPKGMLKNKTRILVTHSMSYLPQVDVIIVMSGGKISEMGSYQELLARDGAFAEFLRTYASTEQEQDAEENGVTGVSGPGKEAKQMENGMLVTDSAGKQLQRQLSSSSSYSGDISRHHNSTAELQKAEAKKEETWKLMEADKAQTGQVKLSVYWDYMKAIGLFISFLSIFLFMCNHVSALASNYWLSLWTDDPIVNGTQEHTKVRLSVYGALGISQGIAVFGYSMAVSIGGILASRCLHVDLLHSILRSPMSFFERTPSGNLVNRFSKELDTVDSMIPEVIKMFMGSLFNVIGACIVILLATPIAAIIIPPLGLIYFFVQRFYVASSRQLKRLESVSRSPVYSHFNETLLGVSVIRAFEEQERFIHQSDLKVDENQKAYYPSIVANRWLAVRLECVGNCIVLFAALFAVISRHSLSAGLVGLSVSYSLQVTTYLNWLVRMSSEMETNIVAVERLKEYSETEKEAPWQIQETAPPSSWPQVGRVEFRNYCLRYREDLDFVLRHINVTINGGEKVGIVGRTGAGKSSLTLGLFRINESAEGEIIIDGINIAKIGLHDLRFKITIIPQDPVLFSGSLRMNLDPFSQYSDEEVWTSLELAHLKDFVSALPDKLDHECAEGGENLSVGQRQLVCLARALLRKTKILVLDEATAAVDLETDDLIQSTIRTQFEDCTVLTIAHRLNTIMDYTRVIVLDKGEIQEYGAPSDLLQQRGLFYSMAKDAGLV", "conditions": "low affinity substrate of MRP1; cited from earlier work"}, "[4]": {"conditions": "B4-mdr1a P-gp knockdown T84 cells"}, "[5]": {"conditions": "B4-mdr1a P-gp knockdown vs control T84 cells"}, "[6]": {"conditions": "B5-mdr1a P-gp knockdown T84 cells"}, "[7]": {"conditions": "B5-mdr1a P-gp knockdown vs control T84 cells"}, "[8]": {"conditions": "used at 0.01 mg/mL (highest concentration soluble in PBS, diluted 1:10)"}}, "data": [{"molecule": "CCCCC/C=C\\C/C=C\\C/C=C\\C/C=C\\CCCC(=O)OC(CO)CO", "note": "[2-Arachidonoyl Glycerol (2-AG), 2-arachidonoyl glycerol]", "values": [{"measurement": "Average (relative abundance, normalized to anandamide-d8 standard)", "setting": "P-gp; [4]", "value": 32.17}, {"measurement": "% of Control", "setting": "P-gp; [5]", "value": 91, "unit": "%"}, {"measurement": "Average (relative abundance, normalized to anandamide-d8 standard)", "setting": "P-gp; [6]", "value": 29.47}, {"measurement": "% of Control", "setting": "P-gp; [7]", "value": 83, "unit": "%"}, {"measurement": "Average (relative abundance, normalized to anandamide-d8 standard)", "setting": "P-gp; control T84 cells", "value": 35.53}]}, {"molecule": "CCCN(CCC)S(=O)(=O)c1ccc(C(=O)O)cc1", "note": "[Probenecid]", "values": [{"measurement": "number of neutrophils migrating basolateral-to-apical across infected H292 monolayers", "setting": "[1]", "value": "effectively reduced"}, {"measurement": "number of neutrophils migrating basolateral-to-apical across infected H292 monolayers", "setting": "[1]; listed as probenecid", "value": "significantly fewer"}, {"measurement": "reduction in bacteremia", "setting": "[2]; 48 post-infection, no longer statistically significant (FIG. 19C)", "value": 10, "unit": "fold"}, {"measurement": "number of bacteria in the lung", "setting": "[2]; 48 hours post-infection", "value": "the same"}, {"measurement": "other granulocytes in the mouse lung", "setting": "[2]; Cd11b+/Cd45+/Ly6g- granulocytes (FIG. 19D)", "value": "no reduction"}, {"measurement": "lower CFU in the blood of mice that developed bacteremia, compared to PBS-treated mice", "setting": "[2]; D1 post-infection (FIG. 19C)", "value": "approximately 10 fold"}, {"measurement": "cases of bacteremia", "setting": "[2]; D1 post-infection, vs PBS-treated mice (FIG. 19C)", "value": "fewer cases"}, {"measurement": "fewer neutrophils in bronchoalveolar lavage fluid (BALF) than PBS-treated mice", "setting": "[2]; Day 1 post-infection, delivered 3 hours prior to and 3 hours post-infection (FIG. 19B)", "value": 35, "unit": "%"}, {"measurement": "difference in the bacterial CFU in mice that did not develop bacteremia", "setting": "[2]; failed to reach statistical significance (FIG. 19E)", "value": "approximately 2 fold"}]}, {"molecule": "CCCCC/C=C\\C/C=C\\C/C=C\\C/C=C\\CCCC(=O)NCCO", "note": "[Anandamide (AEA), Arachidonoyl ethanolamide]", "values": [{"measurement": "AMEND inhibitory activity of purified compounds in the cell-free migration assay", "setting": "[3]; [8]", "value": "significant inhibitory activity"}]}, {"molecule": "CCCCC/C=C\\C/C=C\\C/C=C\\C/C=C\\CCCCOC(CO)CO", "note": "[Noladin ether]", "values": [{"measurement": "Average (relative abundance, normalized to anandamide-d8 standard)", "setting": "P-gp; [4]", "value": 154.03}, {"measurement": "% of Control", "setting": "P-gp; [5]", "value": 461, "unit": "%"}, {"measurement": "Average (relative abundance, normalized to anandamide-d8 standard)", "setting": "P-gp; [6]", "value": 56.23}, {"measurement": "% of Control", "setting": "P-gp; [7]", "value": 168, "unit": "%"}, {"measurement": "Average (relative abundance, normalized to anandamide-d8 standard)", "setting": "P-gp; control T84 cells", "value": 33.43}]}, {"molecule": "CC/C=C\\C/C=C\\C/C=C\\CCCCCCCC(=O)NCCO", "note": "[α-LEA, α-Linolenoyl Ethanolamide]", "values": [{"measurement": "AMEND inhibitory activity of purified compounds in the cell-free migration assay", "setting": "[3]; used at 0.005 mg/mL (highest concentration soluble in PBS, diluted 1:10)", "value": "significant inhibitory activity"}]}, {"molecule": "CCCCCCCC/C=C\\CCCCCCCC(=O)NCCO", "note": "[Oleoyl ethanolamide (OEA), Oleoyl ethanolamide]", "values": [{"measurement": "AMEND inhibitory activity of purified compounds in the cell-free migration assay", "setting": "[3]; [8]", "value": "significant inhibitory activity"}]}, {"molecule": "CCCCC[C@H](O)/C=C/C=C\\C=C\\C=C\\[C@@H](O)[C@@H](O)CCCC(=O)O", "note": "[Lipoxin A4]", "values": [{"measurement": "inhibitory activity on HXA3-induced migration after treatment with FAAH", "setting": "[3]; pretreated with FAAH at 37°C for 30 min, Lipoxin used at 10 nM (FIG. 2C, FIG. 8)", "value": "not sensitive"}, {"measurement": "inhibitory activity on HXA3-induced migration after treatment with MAGL", "setting": "[3]; pretreated with MAGL at 37°C for 30 min, Lipoxin used at 10 nM (FIG. 2C, FIG. 8)", "value": "not sensitive"}]}, {"molecule": "CCCCC/C=C\\C/C=C\\C/C=C\\C/C=C\\CCCC(=O)NCCc1ccc(O)c(O)c1", "note": "[N-Arachidonoyl Dopamine]", "values": [{"measurement": "Average (relative abundance, normalized to anandamide-d8 standard)", "setting": "P-gp; [4]", "value": 1.97}, {"measurement": "Average (relative abundance, normalized to anandamide-d8 standard)", "setting": "P-gp; [6]", "value": 1.90}, {"measurement": "Average (relative abundance, normalized to anandamide-d8 standard)", "setting": "P-gp; control T84 cells", "value": 0.00}]}, {"molecule": "N[C@@H](CCC(=O)N[C@@H](CS)C(=O)NCC(=O)O)C(=O)O", "note": "[Glutathione]", "values": [{"measurement": "Km", "setting": "MRP1", "value": "1000 to 5000", "unit": "µM"}]}]}
